15 compounds from patent US12540118B2, “Dendrene amide compound, bactericide and use thereof” (Jiangsu Flag Chemical Industry Co., Ltd., priority 2020, dated 2026) can be followed below.

Some results are limits rather than exact numbers.

T1 sequence (Q0QF01 43-664 partner): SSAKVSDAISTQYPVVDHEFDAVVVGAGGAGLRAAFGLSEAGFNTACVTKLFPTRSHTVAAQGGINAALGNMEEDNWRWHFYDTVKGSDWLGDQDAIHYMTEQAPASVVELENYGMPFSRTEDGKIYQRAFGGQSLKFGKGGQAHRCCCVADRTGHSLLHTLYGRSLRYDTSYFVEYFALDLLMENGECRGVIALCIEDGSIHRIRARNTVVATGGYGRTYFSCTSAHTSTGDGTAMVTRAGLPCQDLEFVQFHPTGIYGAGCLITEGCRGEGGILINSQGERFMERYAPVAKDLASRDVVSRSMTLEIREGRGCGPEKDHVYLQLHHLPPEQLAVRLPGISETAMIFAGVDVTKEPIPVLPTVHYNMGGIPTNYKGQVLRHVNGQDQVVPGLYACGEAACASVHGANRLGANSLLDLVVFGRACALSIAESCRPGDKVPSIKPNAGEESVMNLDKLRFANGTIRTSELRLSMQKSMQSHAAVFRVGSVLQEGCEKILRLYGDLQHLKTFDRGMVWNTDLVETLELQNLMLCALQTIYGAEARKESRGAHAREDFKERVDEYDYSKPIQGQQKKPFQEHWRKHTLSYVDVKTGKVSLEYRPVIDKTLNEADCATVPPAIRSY
T1 sequence (Q007T0 29-280): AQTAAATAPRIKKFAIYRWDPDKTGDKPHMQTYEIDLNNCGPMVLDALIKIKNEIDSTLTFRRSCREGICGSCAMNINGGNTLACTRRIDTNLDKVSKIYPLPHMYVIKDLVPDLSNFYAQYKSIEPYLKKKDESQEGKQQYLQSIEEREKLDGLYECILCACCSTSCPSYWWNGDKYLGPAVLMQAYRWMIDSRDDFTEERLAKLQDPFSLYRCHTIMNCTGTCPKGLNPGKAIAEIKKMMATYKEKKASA
T1 sequence (D0VWV4 30-169): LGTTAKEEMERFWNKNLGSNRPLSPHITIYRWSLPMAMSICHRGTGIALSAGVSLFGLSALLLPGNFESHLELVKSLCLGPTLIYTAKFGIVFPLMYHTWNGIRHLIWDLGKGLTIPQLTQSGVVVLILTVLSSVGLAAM
T1 sequence (A5GZW8 57-159 limits assumed): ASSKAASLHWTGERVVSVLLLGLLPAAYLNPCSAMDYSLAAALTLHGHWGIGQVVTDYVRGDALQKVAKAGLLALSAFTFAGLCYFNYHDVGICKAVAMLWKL

One test addresses T1, succinate dehydrogenase (Sus scrofa, UniProt A5GZW8+D0VWV4+Q007T0).
T1 construct: isolated from porcine hearts; from tissue; host or cells: porcine heart
Put plainly: Enzyme activity assay, succinate dehydrogenase (DCIP reduction). It is filed as biochemical, porcine. Particulars: read-out: Inhibitors (10 μM, SQR). How it is done:
The inhibitory activities of control agents and target compounds on succinate dehydrogenase are determined.
The enzyme used in this test example is succinate dehydrogenase, which is isolated from porcine hearts.
The test method comprises the following steps: The total volume of the system is 1.8 ml, and the system contained 100 mM Na2HPO4—NaH2PO4 buffer (pH=7.4), 0.3 mM EDTA, 20 mM sodium succinate, 53 μM DCIP (2,6-dichloroindophenol sodium), and 2 nM succinate dehydrogenase. Thermostatic waterbath at 23° C. and magnetic stirring at 600 rpm. The decrease in the light absorption of the substrate DCIP is monitored at a wavelength of 600 nm and experimental points in a linear range are collected. Control substrate consumption not more than 5% of the experimental points. The molar extinction coefficient of DCIP is 21 mM^−1 cm^−1. And calculating the reduction yield of the DCIP in the reaction time, fitting a linear slope, and deducting the baseline slope to obtain the initial reaction speed.
`C=C(c1cccc(C(F)(F)F)c1Cl)C(C)N(C(=O)c1c(C(F)F)nn(C)c1F)C1CC1` (stereo not drawn) [Compound 101]: the inhibition at 10 µM was more than 90%.

In the case of `CCS(=O)(=O)c1ccc(C(=C(Cl)Cl)C(C)N(C(=O)c2c(C(F)F)nn(C)c2F)C2CC2)cc1` (stereo not drawn) [Compound 216], the inhibition at 10 µM is more than 90%.

As to `CC(C(=C(Cl)Cl)c1ccccc1F)N(C(=O)c1c(C(F)F)nn(C)c1F)C1CC1` (stereo not drawn) [Compound 176], the inhibition at 10 µM is more than 90%.

For `Cn1nc(C(F)F)c(C(=O)N(CC(=C(Cl)Cl)c2ccccc2S(C)(=O)=O)C2CC2)c1F` [Compound 161], the inhibition at 10 µM is more than 90%.

For the compound `C=C(c1ccc(Br)cc1Br)C(C)N(C(=O)c1c(C(F)F)nn(C)c1F)C1CC1` (stereo not drawn) [Compound 82], the inhibition at 10 µM was more than 90%.

In the case of `Cc1cc(C)c(C(=C(Cl)Cl)C(C)N(C(=O)c2c(C(F)F)nn(C)c2F)C2CC2)c(C)c1` (stereo not drawn) [Compound 196], the inhibition at 10 µM was more than 90%.

With `Cc1ccc(C(C)(C)C)cc1C(CN(C(=O)c1c(C(F)F)nn(C)c1F)C1CC1)=C(Cl)Cl` [Compound 147], the inhibition at 10 µM is more than 90%.

Regarding `C=C(CN(C(=O)c1c(C(F)F)nn(C)c1F)C1CC1)c1cccc(S(=O)(=O)CC)c1` [Compound 53], the inhibition at 10 µM is more than 90%.

On to `Cc1ccc(C(C)C)cc1C(CN(C(=O)c1c(C(F)F)nn(C)c1F)C1CC1)=C(Cl)Cl` [Compound 144], for which the inhibition at 10 µM was more than 90%.

For the compound `Cc1ccc(C(=C(Cl)Cl)C(C)N(C(=O)c2c(C(F)F)nn(C)c2F)C2CC2)cc1C` (stereo not drawn) [Compound 204], the inhibition at 10 µM is more than 90%.

For the compound `C=C(c1ccc(Cl)cc1F)C(C)N(C(=O)c1c(C(F)F)nn(C)c1F)C1CC1` (stereo not drawn) [Compound 97], the inhibition at 10 µM is more than 90%.

Consider `CC(C(=C(Cl)Cl)c1c(Cl)cccc1Cl)N(C(=O)c1c(C(F)F)nn(C)c1F)C1CC1` (stereo not drawn) [Compound 172], for which the inhibition at 10 µM is more than 90%.

On to `Cn1nc(C(F)F)c(C(=O)N(CC(=C(Cl)Cl)c2ccc(Cl)cc2F)C2CC2)c1F` [Compound 153], for which the inhibition at 10 µM was more than 90%.

On to `Cn1nc(C(F)F)c(C(=O)N(CC(=C(Cl)Cl)c2c(F)cc(F)cc2F)C2CC2)c1F` [Compound 129], for which the inhibition at 10 µM is more than 90%.

Take `CC(C(=C(Cl)Cl)c1cc(F)ccc1F)N(C(=O)c1c(C(F)F)nn(C)c1F)C1CC1` (stereo not drawn) [Compound 180]: the inhibition at 10 µM was more than 90%.

The test system of another test is Sphaerotheca fuliginea. In words: Sphaerotheca fuliginea potting method. The format is in vivo. The note with it: Podosphaera fuliginea; 100 mg/L; read-out: Sphaerotheca fuliginea control rating. The protocol: The fungicidal activity of the control agents and target compounds are determined. The test and investigation method refers to SOP-SC-1101 sphaerotheca fuliginea potting method in disinfectant rolls written by KANGZHUO and GUBAOGEN in “Standard operation specification for testing biological activity of pesticides”.
On to `C=C(c1cccc(C(F)(F)F)c1Cl)C(C)N(C(=O)c1c(C(F)F)nn(C)c1F)C1CC1` (stereo not drawn) [Compound 101], for which the pest or weed control at 100 µg/mL is 80 to 100%.

Consider `CCS(=O)(=O)c1ccc(C(=C(Cl)Cl)C(C)N(C(=O)c2c(C(F)F)nn(C)c2F)C2CC2)cc1` (stereo not drawn) [Compound 216], for which the pest or weed control at 100 µg/mL was 80 to 100%.

For the compound `CC(C(=C(Cl)Cl)c1ccccc1F)N(C(=O)c1c(C(F)F)nn(C)c1F)C1CC1` (stereo not drawn) [Compound 176], the pest or weed control at 100 µg/mL was 80 to 100%.

Regarding `Cn1nc(C(F)F)c(C(=O)N(CC(=C(Cl)Cl)c2ccccc2S(C)(=O)=O)C2CC2)c1F` [Compound 161], the pest or weed control at 100 µg/mL lay within 80 to 100%.

With `C=C(c1ccc(Br)cc1Br)C(C)N(C(=O)c1c(C(F)F)nn(C)c1F)C1CC1` (stereo not drawn) [Compound 82], the pest or weed control at 100 µg/mL fell in the range of 80 to 100%.

Regarding `Cc1cc(C)c(C(=C(Cl)Cl)C(C)N(C(=O)c2c(C(F)F)nn(C)c2F)C2CC2)c(C)c1` (stereo not drawn) [Compound 196], the pest or weed control at 100 µg/mL was in the range of 80 to 100%.

Turning to `Cc1ccc(C(C)(C)C)cc1C(CN(C(=O)c1c(C(F)F)nn(C)c1F)C1CC1)=C(Cl)Cl` [Compound 147], the pest or weed control at 100 µg/mL fell in the range of 80 to 100%.

Regarding `C=C(CN(C(=O)c1c(C(F)F)nn(C)c1F)C1CC1)c1cccc(S(=O)(=O)CC)c1` [Compound 53], the pest or weed control at 100 µg/mL lay in the range of 70 to 80%.

On to `Cc1ccc(C(C)C)cc1C(CN(C(=O)c1c(C(F)F)nn(C)c1F)C1CC1)=C(Cl)Cl` [Compound 144], for which the pest or weed control at 100 µg/mL was 80 to 100%.

Turning to `Cc1ccc(C(=C(Cl)Cl)C(C)N(C(=O)c2c(C(F)F)nn(C)c2F)C2CC2)cc1C` (stereo not drawn) [Compound 204], the pest or weed control at 100 µg/mL was 80 to 100%.

With `C=C(c1ccc(Cl)cc1F)C(C)N(C(=O)c1c(C(F)F)nn(C)c1F)C1CC1` (stereo not drawn) [Compound 97], the pest or weed control at 100 µg/mL was 80 to 100%.

On to `CC(C(=C(Cl)Cl)c1c(Cl)cccc1Cl)N(C(=O)c1c(C(F)F)nn(C)c1F)C1CC1` (stereo not drawn) [Compound 172], for which the pest or weed control at 100 µg/mL was in the range of 80 to 100%.

On to `Cn1nc(C(F)F)c(C(=O)N(CC(=C(Cl)Cl)c2ccc(Cl)cc2F)C2CC2)c1F` [Compound 153], for which the pest or weed control at 100 µg/mL lay in the range of 80 to 100%.

With `Cn1nc(C(F)F)c(C(=O)N(CC(=C(Cl)Cl)c2c(F)cc(F)cc2F)C2CC2)c1F` [Compound 129], the pest or weed control at 100 µg/mL is 80 to 100%.

On to `CC(C(=C(Cl)Cl)c1cc(F)ccc1F)N(C(=O)c1c(C(F)F)nn(C)c1F)C1CC1` (stereo not drawn) [Compound 180], for which the pest or weed control at 100 µg/mL was in the range of 80 to 100%.

Another test deals with Erysiphe graminis. Put plainly: Erysiphe graminis potting method. Particulars: Blumeria graminis; 100 mg/L; read-out: Erysiphe graminis control rating. It is filed as in vivo. The protocol: The fungicidal activity of the control agents and target compounds are determined. The test and investigation method refers to SOP-SC-1116 Erysiphe graminis potting method in disinfectant rolls written by KANGZHUO and GUBAOGEN in “Standard operation specification for testing biological activity of pesticides”.
In the case of `C=C(c1cccc(C(F)(F)F)c1Cl)C(C)N(C(=O)c1c(C(F)F)nn(C)c1F)C1CC1` (stereo not drawn) [Compound 101], the pest or weed control at 100 µg/mL lay in the range of 80 to 100%.

In the case of `CCS(=O)(=O)c1ccc(C(=C(Cl)Cl)C(C)N(C(=O)c2c(C(F)F)nn(C)c2F)C2CC2)cc1` (stereo not drawn) [Compound 216], the pest or weed control at 100 µg/mL was in the range of 80 to 100%.

Consider `CC(C(=C(Cl)Cl)c1ccccc1F)N(C(=O)c1c(C(F)F)nn(C)c1F)C1CC1` (stereo not drawn) [Compound 176], for which the pest or weed control at 100 µg/mL lay within 80 to 100%.

`Cn1nc(C(F)F)c(C(=O)N(CC(=C(Cl)Cl)c2ccccc2S(C)(=O)=O)C2CC2)c1F` [Compound 161]: the pest or weed control at 100 µg/mL fell in the range of 80 to 100%.

Turning to `C=C(c1ccc(Br)cc1Br)C(C)N(C(=O)c1c(C(F)F)nn(C)c1F)C1CC1` (stereo not drawn) [Compound 82], the pest or weed control at 100 µg/mL lay within 80 to 100%.

On to `Cc1cc(C)c(C(=C(Cl)Cl)C(C)N(C(=O)c2c(C(F)F)nn(C)c2F)C2CC2)c(C)c1` (stereo not drawn) [Compound 196], for which the pest or weed control at 100 µg/mL is 80 to 100%.

As for `Cc1ccc(C(C)(C)C)cc1C(CN(C(=O)c1c(C(F)F)nn(C)c1F)C1CC1)=C(Cl)Cl` [Compound 147], the pest or weed control at 100 µg/mL was in the range of 80 to 100%.

With `C=C(CN(C(=O)c1c(C(F)F)nn(C)c1F)C1CC1)c1cccc(S(=O)(=O)CC)c1` [Compound 53], the pest or weed control at 100 µg/mL was in the range of 80 to 100%.

For `Cc1ccc(C(C)C)cc1C(CN(C(=O)c1c(C(F)F)nn(C)c1F)C1CC1)=C(Cl)Cl` [Compound 144], the pest or weed control at 100 µg/mL was 80 to 100%.

Take `Cc1ccc(C(=C(Cl)Cl)C(C)N(C(=O)c2c(C(F)F)nn(C)c2F)C2CC2)cc1C` (stereo not drawn) [Compound 204]: the pest or weed control at 100 µg/mL lay within 80 to 100%.

For the compound `C=C(c1ccc(Cl)cc1F)C(C)N(C(=O)c1c(C(F)F)nn(C)c1F)C1CC1` (stereo not drawn) [Compound 97], the pest or weed control at 100 µg/mL was in the range of 80 to 100%.

With `CC(C(=C(Cl)Cl)c1c(Cl)cccc1Cl)N(C(=O)c1c(C(F)F)nn(C)c1F)C1CC1` (stereo not drawn) [Compound 172], the pest or weed control at 100 µg/mL lay in the range of 80 to 100%.

For the compound `Cn1nc(C(F)F)c(C(=O)N(CC(=C(Cl)Cl)c2ccc(Cl)cc2F)C2CC2)c1F` [Compound 153], the pest or weed control at 100 µg/mL fell in the range of 80 to 100%.

As for `Cn1nc(C(F)F)c(C(=O)N(CC(=C(Cl)Cl)c2c(F)cc(F)cc2F)C2CC2)c1F` [Compound 129], the pest or weed control at 100 µg/mL fell in the range of 80 to 100%.

`CC(C(=C(Cl)Cl)c1cc(F)ccc1F)N(C(=O)c1c(C(F)F)nn(C)c1F)C1CC1` (stereo not drawn) [Compound 180]: the pest or weed control at 100 µg/mL is 80 to 100%.
